Experimental findings from patent US6737383B1, “Herbicidal oxadiazolidines” (priority 1999, dated 2004) are described below.

The test system of one test is duck salad. The experiment in a line: Test B flood test duck salad. It is filed as in vivo, Heteranthera limosa. The following applies: for Plant response rating, Ducksalad (0 to 10 scale, 0 is no effect, 10 is complete control): Rate 62 g/ha, Pre-emergence. The method, then:
(§1) At the same time, these crop and weed species were also treated with postemergence applications of test chemicals formulated in the same manner. Plants ranged in height from 2 to 18 cm (1- to 4-leaf stage) for postemergence treatments. Plant species in the flood test consisted of rice (Oryza sativa), smallflower flatsedge (Cyperus difformis), duck salad (Heteranthera limosa) and bamyardgrass (Echinochloa crus-galli) grown to the 2-leaf stage for testing. Treated plants and controls were maintained in a greenhouse for twelve to sixteen days, after which all species were compared to controls and visually evaluated. Plant response ratings, summarized in Table B, are based on a scale of 0 to 10 where 0 is no effect and 10 is complete control. A dash (−) response means no test result.

The next test has as its system smallflower flatsedge. The experiment in a line: Test B flood test smallflower flatsedge. Type of test: in vivo, Cyperus difformis. The following applies: for Plant response rating, S. Flatsedge (0 to 10 scale, 0 is no effect, 10 is complete control): Rate 62 g/ha, Pre-emergence. In outline: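 Each value is a visual injury score relative to controls, with 10 meaning complete control and 0 no effect. Evaluation took place twelve to sixteen days after the 2-leaf-stage plants were treated and kept in the greenhouse.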

The subject of a further test is rice. The experiment in a line: Test B flood test rice. It is filed as in vivo, Oryza sativa. To be noted: for Plant response rating, Rice (0 to 10 scale, 0 is no effect, 10 is complete control): Rate 62 g/ha, Pre-emergence. Here is the method:
as §1

In the next test the test system is bamyardgrass. The experiment in a line: Test B flood test barnyardgrass. The following applies: for Plant response rating, Barnyardgrass (0 to 10 scale, 0 is no effect, 10 is complete control): Rate 62 g/ha, Pre-emergence. It is filed as in vivo, Echinochloa crus-galli. The method, then:
as §1

Where [1] appears, read: flood test species, visual evaluation after twelve to sixteen days.
The mark [2] stands for this setting: Rate 125 g/ha, under heading Pre-emergence, flood test species, visual evaluation after twelve to sixteen days.
The mark [3] stands for this setting: Rate 250 g/ha, Pre-emergence (flood test species), scale 0 to 10, 0 is no effect, 10 is complete control.
Where [4] appears, read: Rate 500 g/ha, Pre-emergence section of Table B, 0 to 10 scale (0 no effect, 10 complete control).
The mark [5] stands for this setting: Rate 125 g/ha, Pre-emergence section (flood test species), scale 0 to 10, 0 no effect, 10 complete control.

In the case of `CC(C)N(C(=O)n1oc(=O)n(CC2CC2)c1=O)c1ccc(Cl)cc1` [Compound 539], the “Plant response rating, Ducksalad (0 to 10 scale, 0 is no effect, 10 is complete control)” value in the test with duck salad (setting [1]) turned out to be 0. For the same compound, the “Ducksalad plant response rating (0 to 10 scale, 0 is no effect, 10 is complete control)” value in the test with duck salad (setting [2]) amounted to 0. The “Ducksalad plant response rating” value with duck salad (setting [3]) and with duck salad (setting [4]) was 0 in each case. Also, the “Plant response rating, S. Flatsedge (0 to 10 scale, 0 is no effect, 10 is complete control)” value with smallflower flatsedge (setting [1]) turned out to be 0. For the same compound, in the test with smallflower flatsedge (setting [2]), the “S. Flatsedge plant response rating (0 to 10 scale, 0 is no effect, 10 is complete control)” value was 0. For the same compound, the “S. Flatsedge plant response rating” value in the test on smallflower flatsedge (setting [3]) and in the test with smallflower flatsedge (setting [4]) was 0 each time. Also, the “Plant response rating, Rice (0 to 10 scale, 0 is no effect, 10 is complete control)” value in the test on rice (setting [1]) was 0. Also, the “Rice plant response rating (0 to 10 scale, 0 is no effect, 10 is complete control)” value in the test with rice (setting [2]) was found to be 0. Besides, the “Rice plant response rating” value with rice (setting [3]) and with rice (setting [4]) was 0 in each case. In the test on bamyardgrass (setting [1]), the “Plant response rating, Barnyardgrass (0 to 10 scale, 0 is no effect, 10 is complete control)” value was 0. In the test with bamyardgrass (setting [2]), the “Barnyardgrass plant response rating (0 to 10 scale, 0 is no effect, 10 is complete control)” value worked out at 0. The “Barnyardgrass plant response rating” value in the test on bamyardgrass (setting [3]) and with bamyardgrass (setting [4]) was 0 throughout.
Take `CC(C)N(C(=O)n1oc(=O)n(C(C)C(=O)N2CCOCC2)c1=O)c1ccc(F)cc1` (centres unmarked) [Compound 705]: the “Plant response rating, Ducksalad (0 to 10 scale, 0 is no effect, 10 is complete control)” value with duck salad (setting [1]) was 0. For the same compound, the “Ducksalad plant response rating” value with duck salad (setting [5]), in the test with duck salad (setting [3]) and in the test on duck salad (setting [4]) was 0 in each case. The “Plant response rating, S. Flatsedge (0 to 10 scale, 0 is no effect, 10 is complete control)” value in the test on smallflower flatsedge (setting [1]) came to 0. The “S. Flatsedge plant response rating” value in the test with smallflower flatsedge (setting [5]), in the test with smallflower flatsedge (setting [3]) and with smallflower flatsedge (setting [4]) was 0 in each case. Besides, the “Plant response rating, Rice (0 to 10 scale, 0 is no effect, 10 is complete control)” value with rice (setting [1]) was 0. In addition, the results for the “Rice plant response rating” value in the test with rice (setting [5]), with rice (setting [3]) and with rice (setting [4]) were 1, 2 and 2, respectively. Besides, the “Plant response rating, Barnyardgrass (0 to 10 scale, 0 is no effect, 10 is complete control)” value in the test with bamyardgrass (setting [1]) was determined as 0. Also, the results for the “Barnyardgrass plant response rating” value in the test with bamyardgrass (setting [5]), with bamyardgrass (setting [3]) and in the test with bamyardgrass (setting [4]) were 0, 2 and 2, respectively.
